Results as given in patent US20210261621A1, “Preparation of Dilipid Polymixins and Use Thereof as Antimicrobial Adjuvants” (priority 2018, published 2021).
In brackets after ≈: the same amount, converted by molar mass. Where two headings read alike, the source gives them in different places. Positions of bridges follow the written chain, without caps; N, C: chain ends. Non-standard residues stand in square brackets, D forms with d. Residues, ends and D or L forms follow the SMILES beside them. *: point of attachment. Benzoyl(4-Ph) = O=C(c1ccc(-c2ccccc2)cc1)*; Lauroyl = CCCCCCCCCCCC(=O)*; Octanoyl = CCCCCCCC(=O)*; Dab = NCC[C@H](N)C(=O)O; Butyryl = CCCC(=O)*

What was measured:
MRSE CAN-ICU 61589 = assay type: cell-based, S. epidermidis
Description: (§1) Bacterial strains were either obtained from the American Type Culture Collection (ATCC), Canadian National Intensive Care Unit (CAN-ICU) surveillance study or the Canadian Ward Surveillance (CANWARD) study. Strains from both CAN-ICU and CANWARD are isolates recovered from patients diagnosed with a presumed infectious disease that were admitted in a participating medical center across Canada. Efflux-deficient strain PAO200 (lacking MexAB-OprM efflux system) and PA0750 (lacking MexAB-OprM, MexCD-OprJ, MexEF-OprN, MexJK and MexXY efflux systems, and the outer membrane protein OpmH) were kindly gifted by Dr. Ayush Kumar (University of Manitoba).
(§2) The in vitro antibacterial activity of the compounds studied were assessed by broth microdilution susceptibility testing following CLSI guidelines. Bacterial cultures were grown overnight prior to the assay. The overnight grown cultures were diluted in saline to 0.5 McFarland turbidity, followed by 1:50 dilution in Mueller-Hinton broth (MHB) for inoculation to a final concentration of approximately 5×10^5 colony forming units/mL. Testing was performed on 96-well plates where the tested compounds were 2-fold serially diluted in MHB and incubated with equal volumes of bacterial inoculum at 37° C. for 18 h. […] Wells containing MHB with or without bacterial cells were used as positive or negative control, respectively.

P. aeruginosa 101243 = assay type: cell-based, Pseudomonas aeruginosa
Description: (§3) We then addressed the possibility for the dilipid polymyxins to display enhanced antibacterial activity against colistin-resistant Gram-negative pathogens. […] The extended hydrophobic region of the dilipid polymyxin may provide additional hydrophobic interactions to the outer membrane of colistin-resistant organisms. Eight MDR colistin-resistant Gram-negative bacterial isolates were tested, including two E. coli isolates harboring the mcr-1 plasmid-encoded polymyxin resistance gene. We found no difference between the antibacterial activity of dilipid polymyxins and colistin against colistin-resistant Gram-negative bacteria (Table 3).
as §1, §2

P. aeruginosa 114228 = assay type: cell-based, Pseudomonas aeruginosa
Description: as §3, §1, §2

P. aeruginosa 91433 = assay type: cell-based, Pseudomonas aeruginosa
Description: as §3, §1, §2

[1] = tested on: S. maltophilia CAN-ICU 62584; assay type: cell-based, Stenotrophomonas maltophilia
Description: as §1, §2

S. pneumoniae ATCC 49619 = assay type: cell-based
Description: as §1, §2

E. faecalis ATCC 29212 = assay type: cell-based
Description: as §1, §2

E. faecium ATCC 27270 = assay type: cell-based
Description: as §1, §2

[2] = tested on: E. coli CANWARD-2011 97615; assay type: cell-based, Escherichia coli
Description: as §1, §2

A. baumannii AB027 = assay type: cell-based, Acinetobacter baumannii
Description: as §1, §2

A. baumannii 110193 = assay type: cell-based, Acinetobacter baumannii
Description: as §1, §2

[3] = tested on: A. baumannii CAN-ICU 63169; assay type: cell-based, Acinetobacter baumannii
Description: as §1, §2

A. baumannii ATCC 17978 = assay type: cell-based, Acinetobacter baumannii
Description: as §1, §2

A. baumannii LAC-4 = assay type: cell-based, Acinetobacter baumannii
Description: as §1, §2

A. baumannii AB031 = assay type: cell-based, Acinetobacter baumannii
Description: as §1, §2

E. coli 94474 = assay type: cell-based, Escherichia coli
Description: as §3, §1, §2

E. coli 94393 = assay type: cell-based, Escherichia coli
Description: as §3, §1, §2

[4] = tested on: P. aeruginosa CANWARD-2011 96846; assay type: cell-based, Pseudomonas aeruginosa
In short: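 CLSI microdilution, MHB, 18 h at 37° C. against ~5×10^5 CFU/mL inoculum; patient isolates sourced from […] surveillance, reference strain from ATCC.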

S. aureus ATCC 29213 = assay type: cell-based, Staphylococcus aureus
Description: as §1, §2

MRSA ATCC 33592 = assay type: cell-based, Staphylococcus aureus; conditions: for fold better MIC than colistin: methicillin-resistant Staphylococcus aureus
Description: as §1, §2

[5] = MRSE CAN-ICU 61589 (methicillin-resistant S. epidermidis)
[6] = MRSA ATCC 33592 (methicillin-resistant Staphylococcus aureus)

Description for pig erythrocytes: The ability of the compounds to lyse eukaryotic red blood cells was measured by the amount of hemoglobin released upon incubation with pig erythrocytes, following a published protocol [30]. Briefly, fresh pig blood (generously provided by Dr. Richard Hodges, Director of Animal Care and Veterinary Services of the University of Manitoba) drawn from a pig's antecubital vein was centrifuged at 1000 g for 5 min at 4° C., washed with phosphate-buffered saline (PBS) three times, and re-suspended in the same buffer, consecutively. Compounds at study were 2-fold serially diluted in PBS on a 96-well plate and mixed with equal volumes of erythrocyte solution. Post 1 h incubation at 37° C., the intact cells were pelleted by centrifugation at 1000 g for 5 min at 4° C. Resulting supernatant was then transferred to a new 96-well plate. The hemoglobin released was then measured via an EMax Plus microplate reader (Molecular Devices, USA) at 570 nm wavelength. Erythrocytes in PBS with or without 0.1% Triton X-100 were used as positive or negative control, respectively.

Compound	MIC (MRSE CAN-ICU 61589; [5]) [µg/mL]	MIC (P. aeruginosa 101243; 101243) [µg/mL]	MIC (P. aeruginosa 114228; 114228) [µg/mL]	MIC (P. aeruginosa 91433; 91433) [µg/mL]	MIC ([1]; S. maltophilia CAN-ICU 62584) [µg/mL]	MIC (S. pneumoniae ATCC 49619; S. pneumoniae ATCC 49619) [µg/mL]	MIC (E. faecalis ATCC 29212; E. faecalis ATCC 29212) [µg/mL]	MIC (E. faecium ATCC 27270; E. faecium ATCC 27270) [µg/mL]	MIC [2] [µg/mL]	MIC (A. baumannii AB027; A. baumannii AB027) [µg/mL]	MIC (A. baumannii 110193; A. baumannii 110193) [µg/mL]	MIC ([3]; A. baumannii CAN-ICU 63169) [µg/mL]	MIC (A. baumannii ATCC 17978; A. baumannii ATCC 17978) [µg/mL]	MIC (A. baumannii AB031; A. baumannii AB031) [µg/mL]	MIC (E. coli 94474; 94474) [µg/mL]	MIC (E. coli 94393; 94393) [µg/mL]	MIC [4] [µg/mL]	MIC (S. aureus ATCC 29213; S. aureus ATCC 29213) [µg/mL]	MIC (MRSA ATCC 33592; [6]) [µg/mL]	MIC (A. baumannii LAC-4; A. baumannii LAC-4) [µg/mL]	also measured
CCCC(=O)NCC[C@H](NC(=O)CCC)C(=O)N[C@H](C(=O)N[C@@H](CCN)C(=O)N[C@H]1CCNC(=O)[C@H]([C@@H](C)O)NC(=O)[C@H](CCN)NC(=O)[C@H](CCN)NC(=O)[C@H](CC(C)C)NC(=O)[C@@H](Cc2ccccc2)NC(=O)[C@H](CCN)NC1=O)[C@@H](C)O [Compound 1, Dibutyric Acid (Di-C4) Polymyxin] (Butyryl-[Dab](Butyryl)T[Dab][Dab][Dab][dF]L[Dab][Dab]T; lactam 4-C)	>128	>128	>128	>128	>128	>128	>128	>128	>128	>128	>128	>128	>128	>128	>64	>64	>128	>128	>128	–	MIC (A. baumannii LAC-4; LAC-4): 128 µg/mL (≈ 106 µM); % Hemolysis at 512 μg/mL of polymyxin (pig erythrocytes; red cells of pig, 1 h, 512): 1.1 ± 1.6%
CCCCCCCC(=O)NCC[C@H](NC(=O)CCCCCCC)C(=O)N[C@H](C(=O)N[C@@H](CCN)C(=O)N[C@H]1CCNC(=O)[C@H]([C@@H](C)O)NC(=O)[C@H](CCN)NC(=O)[C@H](CCN)NC(=O)[C@H](CC(C)C)NC(=O)[C@@H](Cc2ccccc2)NC(=O)[C@H](CCN)NC1=O)[C@@H](C)O [Compound 2, Dioctanoic Acid (Di-C8) Polymyxin] (Octanoyl-[Dab](Octanoyl)T[Dab][Dab][Dab][dF]L[Dab][Dab]T; lactam 4-C)	–	32 (≈ 24.3 µM)	4 (≈ 3.04 µM)	4 (≈ 3.04 µM)	–	–	–	–	64 (≈ 48.6 µM)	–	–	–	–	–	4 (≈ 3.04 µM)	4 (≈ 3.04 µM)	8 (≈ 6.08 µM)	–	–	–	MIC (MRSE CAN-ICU 61589; CAN-ICU 61589): 16 µg/mL (≈ 12.2 µM); MIC ([1]; CAN-ICU 62584): 32 µg/mL (≈ 24.3 µM); MIC (S. pneumoniae ATCC 49619; ATCC 49619): 32 µg/mL (≈ 24.3 µM); MIC (E. faecalis ATCC 29212; ATCC 29212): 32 µg/mL (≈ 24.3 µM); MIC (E. faecium ATCC 27270; ATCC 27270): 16 µg/mL (≈ 12.2 µM); MIC (A. baumannii AB027; AB027): 32 µg/mL (≈ 24.3 µM); MIC (A. baumannii 110193; 110193): 16 µg/mL (≈ 12.2 µM); MIC ([3]; CAN-ICU 63169): 64 µg/mL (≈ 48.6 µM); MIC (A. baumannii ATCC 17978; ATCC 17978): 32 µg/mL (≈ 24.3 µM); MIC (A. baumannii LAC-4; LAC-4): 16 µg/mL (≈ 12.2 µM); MIC (A. baumannii AB031; AB031): 8 µg/mL (≈ 6.08 µM); % Hemolysis at 512 μg/mL of polymyxin (pig erythrocytes): 6.2%; MIC (S. aureus ATCC 29213; ATCC 29213): 16 µg/mL (≈ 12.2 µM); MIC (MRSA ATCC 33592; ATCC 33592): 16 µg/mL (≈ 12.2 µM); fold better MIC than colistin (MRSA ATCC 33592): 32 fold
CCCCCCCCCCCC(=O)NCC[C@H](NC(=O)CCCCCCCCCCC)C(=O)N[C@H](C(=O)N[C@@H](CCN)C(=O)N[C@H]1CCNC(=O)[C@H]([C@@H](C)O)NC(=O)[C@H](CCN)NC(=O)[C@H](CCN)NC(=O)[C@H](CC(C)C)NC(=O)[C@@H](Cc2ccccc2)NC(=O)[C@H](CCN)NC1=O)[C@@H](C)O [Compound 3, Didodecanoic Acid (Di-C12) Polymyxin] (Lauroyl-[Dab](Lauroyl)T[Dab][Dab][Dab][dF]L[Dab][Dab]T; lactam 4-C)	–	16 (≈ 11.2 µM)	>128	8 (≈ 5.6 µM)	–	–	–	–	64 (≈ 44.8 µM)	–	>128	–	>128	–	>64	32 (≈ 22.4 µM)	>128	>128	>128	>128	MIC (MRSE CAN-ICU 61589; CAN-ICU 61589): 64 µg/mL (≈ 44.8 µM); MIC ([1]; CAN-ICU 62584): 128 µg/mL (≈ 89.6 µM); MIC (S. pneumoniae ATCC 49619; ATCC 49619): 64 µg/mL (≈ 44.8 µM); MIC (E. faecalis ATCC 29212; ATCC 29212): 64 µg/mL (≈ 44.8 µM); MIC (E. faecium ATCC 27270; ATCC 27270): 8 µg/mL (≈ 5.6 µM); MIC (A. baumannii AB027; AB027): 128 µg/mL (≈ 89.6 µM); MIC ([3]; CAN-ICU 63169): 128 µg/mL (≈ 89.6 µM); MIC (A. baumannii AB031; AB031): 64 µg/mL (≈ 44.8 µM); % Hemolysis at 512 μg/mL of polymyxin (pig erythrocytes; red cells of pig, 1 h, 512): 49.7 ± 3.3%
CC(C)C[C@@H]1NC(=O)[C@@H](Cc2ccccc2)NC(=O)[C@H](CCN)NC(=O)[C@@H](NC(=O)[C@H](CCN)NC(=O)[C@@H](NC(=O)[C@H](CCNC(=O)c2ccc(-c3ccccc3)cc2)NC(=O)c2ccc(-c3ccccc3)cc2)[C@@H](C)O)CCNC(=O)[C@H]([C@@H](C)O)NC(=O)[C@H](CCN)NC(=O)[C@H](CCN)NC1=O [Compound 5, Dibiphenyl-4-Carboxylic Acid (Di-Biphenyl) Polymyxin] ({Benzoyl(4-Ph)}-[Dab](Benzoyl(4-Ph))T[Dab][Dab][Dab][dF]L[Dab][Dab]T; lactam 4-C)	8 (≈ 5.62 µM)	>128	16 (≈ 11.2 µM)	8 (≈ 5.62 µM)	64 (≈ 45 µM)	32 (≈ 22.5 µM)	16 (≈ 11.2 µM)	8 (≈ 5.62 µM)	32 (≈ 22.5 µM)	6 (≈ 4.21 µM)	16 (≈ 11.2 µM)	64 (≈ 45 µM)	16 (≈ 11.2 µM)	8 (≈ 5.62 µM)	8 (≈ 5.62 µM)	16 (≈ 11.2 µM)	64 (≈ 45 µM)	8 (≈ 5.62 µM)	16 (≈ 11.2 µM)	16 (≈ 11.2 µM)	fold better MIC than colistin (MRSA ATCC 33592): 32 fold
colistin [reference compound]	128	–	–	–	64	512	256	256	–	0.25	0.25	32	0.25	0.25	–	–	–	256	512	0.125	MIC (P. aeruginosa 101243; P. aeruginosa 101243, colistin-resistant multidrug-resistant isolate): 1024 µg/mL; MIC (P. aeruginosa 114228; P. aeruginosa 114228, colistin-resistant multidrug-resistant isolate): 4 µg/mL; MIC (P. aeruginosa 91433; P. aeruginosa 91433, colistin-resistant multidrug-resistant isolate): 4 µg/mL; MIC (E. coli 94474; E. coli 94474, colistin-resistant multidrug-resistant isolate): 16 µg/mL; MIC (E. coli 94393; E. coli 94393, colistin-resistant multidrug-resistant isolate): 4 µg/mL
